The values that follow come from publication PMC9933715 (Antimicrobial Agents and Chemotherapy, 2023).

“Also recorded” adds a separate entry of the source. Where two headings read alike, the source gives them in different places. A value given as a limit tells only on which side of the number the result lay.

Data set [1] deals with DENV vesicle packets (VP). Put plainly: Replication-independent vesicle packet induction (pIRO-D) in Huh7/Lunet-T7 cells, TEM, western blot, immunofluorescence. Conditions: 50 μM for 12 h, pIRO-D-transfected Huh7/Lunet-T7. (In western blotting, separated proteins are transferred to a membrane and probed.)
For another data set, the system named is HCV, strain JFH-1. It is filed as cell-based, hepatitis C virus. As to conditions: 50 μM, JFH-1-Luc, Huh7.5, 2 days.
Data set [2] in a line: Cell viability, CellTiter-Glo luminescent assay. Conditions: human, CC50 Huh 7.5, uninfected Huh7.5, 2 days, CellTiter-Glo. (In general: Cellular ATP, detected with luciferase, serves as a proxy for viable cell number.)
In data set [3] the test system is Huh7.5 cells. Put plainly: Cell viability, CellTiter-Glo luminescent assay. Conditions: for cell viability / cytotoxicity at the used concentration: Huh7.5; for Cell viability (fold DMSO) Mean: deconvolution screen, singletons, 50 µM, uninfected Huh7.5.
The test system of data set [4] is ZIKV-R2A (strain FSS13025). Put plainly: microbe, parasite or virus in culture. It is filed as cell-based. As to conditions: Zika virus, Huh7.5, 48 h; for EC50: read-out: EC50 ZIKV-R2A FSS13025; for activity at 50 µM: read-out: ZIKV-R2A replication (fold DMSO) Mean.
For a further data set, the system named is ZIKV H/PF/2013. Put plainly: Infectious viral titer by plaque assay, ZIKV in Huh7.5 cells. It is filed as cell-based, Zika virus. As to conditions: 50 μM, MOI 0.1, Huh7.5, 2 days postinfection.
The next data set deals with DENV-R2A. It is filed as cell-based, Dengue virus. Conditions: 50 μM.
Data set [5] deals with DENV2 16681s. In words: Intracellular DENV vRNA (RT-qPCR) and NS4B (western blot) in infected Huh7.5 cells. As to conditions: 50 μM, MOI 0.1, Huh7.5, 2 days postinfection. It is filed as cell-based, Dengue virus. On the technique in general: Real-time PCR tracks product formation cycle by cycle.
Another data set deals with MHV-A59. Put plainly: Infectious viral titer by plaque assay, MHV-A59 in DBT cells. The format is cell-based, mouse hepatitis virus. Conditions: 50 μM, MOI 0.0001, 1 day postinfection.
In data set [6] the target is ZIKV NS3/NS4B interaction (Zika virus, UniProt A0A024B7W1). Put plainly: Coimmunoprecipitation assay of NS3/NS4B interaction. Conditions: unpublished data.
The subject of another data set is sg-DENV-R2H. In words: Resistance selection with selectable subgenomic replicon sg-DENV-R2H in Huh7.5 cells. It is filed as cell-based, Dengue virus. Conditions: 100 µM, hygromycin 500 µg/mL, 31 days of dual selection.
Data set [7] has as its system DENV2 16681s. In words: Infectious viral titer by plaque assay, wild-type DENV2 in Huh7.5 cells. It is filed as cell-based, Dengue virus. As to conditions: 50 μM, MOI 0.1, Huh7.5, 2 days postinfection.
The next data set concerns SARS-CoV-2. It is filed as cell-based.
Data set [8] deals with DENV-R2A (Rluc-expressing DENV, serotype 2 strain 16681). In words: microbe, parasite or virus in culture. It is filed as cell-based, Dengue virus. Conditions: for decrease of viral replication (DENV-R2A): 50 μM, Huh7.5, 2 days postinfection, vs DMSO; for activity at 50 µM / EC50: Dengue virus, Huh7.5, 48 h; for EC50: read-out: EC50 DENV-R2A.
The next data set concerns WNV NY99. Put plainly: Extracellular infectious titer by plaque assay, WNV in Huh7.5 cells. Conditions: 50 μM. It is filed as cell-based, West Nile virus.
Another data set has as its system murine cancer model. As to conditions: cited from earlier work.
The subject of data set [9] is Huh7.5 cells. Further details: method as in PMID 34152811. Conditions: same experimental set-up; cited from earlier work.
For data set [10], the system named is DENV-R2A (Rluc-expressing DENV, serotype 2 strain 16681). As to conditions: same experimental set-up; cited from earlier work.
The subject of data set [11] is ZIKV-R2A (strain FSS13025). Conditions: same experimental set-up; cited from earlier work.
Setting [12] is: added up to 8 h after infection, read 2 days postinfection.
Where [13] appears, read: read-out: DENV-R2A replication (fold DMSO) Mean, deconvolution screen, singletons, 50 µM, Huh7.5, 2 days postinfection.

Sequence of ZIKV NS3/NS4B interaction (A0A024B7W1 1503-2119): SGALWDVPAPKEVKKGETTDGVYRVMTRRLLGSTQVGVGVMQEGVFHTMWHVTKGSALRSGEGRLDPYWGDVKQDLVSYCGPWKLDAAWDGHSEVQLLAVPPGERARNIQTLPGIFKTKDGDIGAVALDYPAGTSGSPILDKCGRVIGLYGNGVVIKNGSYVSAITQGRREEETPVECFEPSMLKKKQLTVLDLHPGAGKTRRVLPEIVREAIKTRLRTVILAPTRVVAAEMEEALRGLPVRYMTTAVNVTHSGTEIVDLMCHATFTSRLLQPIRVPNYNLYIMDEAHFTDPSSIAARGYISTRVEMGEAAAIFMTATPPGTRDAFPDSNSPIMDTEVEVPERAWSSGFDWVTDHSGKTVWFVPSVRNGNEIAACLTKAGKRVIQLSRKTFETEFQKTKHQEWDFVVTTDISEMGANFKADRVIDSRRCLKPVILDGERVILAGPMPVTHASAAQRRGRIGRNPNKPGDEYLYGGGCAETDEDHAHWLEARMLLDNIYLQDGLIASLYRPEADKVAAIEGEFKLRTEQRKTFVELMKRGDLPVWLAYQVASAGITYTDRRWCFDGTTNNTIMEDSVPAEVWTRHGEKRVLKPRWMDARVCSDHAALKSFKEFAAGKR
Sequence of ZIKV NS3/NS4B interaction (A0A024B7W1 2270-2520): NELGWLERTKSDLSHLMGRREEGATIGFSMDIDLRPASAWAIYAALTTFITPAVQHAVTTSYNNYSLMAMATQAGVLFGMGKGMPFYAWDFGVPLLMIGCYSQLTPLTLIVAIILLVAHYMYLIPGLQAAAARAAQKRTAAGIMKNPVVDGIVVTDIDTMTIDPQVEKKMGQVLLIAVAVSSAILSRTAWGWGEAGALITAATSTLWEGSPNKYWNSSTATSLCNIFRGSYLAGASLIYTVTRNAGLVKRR

In general, CC50 refers to the concentration that lowers cell viability or growth by half. The term EC50 denotes the concentration at which the effect is half-maximal. Turning to `CC(=O)c1ccc2cn[nH]c2c1` [Compound 6A1HI, 6-acetyl-1H-indazole], the “levels of viral protein NS3 (western blot)” value in data set [1] is “remained unchanged”. In addition, the “impact on HCV replication” value in the data set on HCV, strain JFH-1 is on record as “Only moderate impacts (if any)”. For the same compound, the CC50 at 48 h in [2] was greater than 150 µM. Also, the “cell viability / cytotoxicity at the used concentration” value is “unaffected” in the data set with Huh7.5 cells [3] (50 μM) and “without any cytotoxicity” in the data set on Huh7.5 cells [3] (50 μM, listed as 6A1H1). Besides, the “Cell viability (Fold DMSO)” value in the data set with Huh7.5 cells [3] (6A1HI analogues, test concentration = 50 µM, Huh7.5 cells) came to 0.93 Fold DMSO; in the data set with Huh7.5 cells [3] (Table 2, 6A1HI analogues, 50 μM, Huh7.5, 2 days), 0.93 fold DMSO. For the same compound, the “Cell viability (fold DMSO) Mean” value in the data set with Huh7.5 cells [3] is recorded as 0.80 fold DMSO. Also, the CC50 in the data set with Huh7.5 cells [3] (read-out: CC50 Huh 7.5, uninfected Huh7.5, 2 days, CellTiter-Glo) was 177 µM. Also, the EC50 in data set [4] amounted to 69.3 µM; in [8], 6.5 µM. Moreover, the activity at 50 µM in data set [4] came out at 29%; in [8] (read-out: DENV-R2A replication (Fold DMSO), 6A1HI analogues, test concentration = 50 µM, Huh7.5 cells), 3.77%; in data set [8] (setting [13]), 0.244%; in data set [8] (read-out: DENV-R2A replication (fold DMSO), Table 2, 6A1HI analogues, 50 μM, Huh7.5, 2 days postinfection), 4%. For the same compound, the “reduction in ZIKV viral titers” value in the data set on ZIKV H/PF/2013 came out at 2 fold. Also, the “inhibitory activity when added after infection” value in the data set with DENV-R2A (added 4 h after infection) was “retain their full inhibitory activity”; in the data set with DENV-R2A (setting [12]), “retained a strong inhibitory activity”. Besides, the “intracellular levels of DENV vRNA and NS4B” value in the data set on DENV2 16681s [5] is given as “decrease”. For the same compound, in the data set on MHV-A59, the “impact on MHV replication” value is reported as “Only moderate impacts (if any); also recorded: did not impede”. In addition, in data set [6], the “formation and stability of ZIKV NS3/NS4B interaction” value is reported as “do not inhibit”. Also, the “selection of resistant cells (genetic barrier to resistance)” value in the data set with sg-DENV-R2H was “unable to select resistant cells”. Further, the results for the “decrease of infectious DENV particle production / DENV titers” value in the data set with DENV2 16681s [7] and in the data set on DENV2 16681s [7] (listed as 6A1H1) were “more than 100 fold” and “up to 1,000 fold”, respectively. Also, the “decrease of released infectious virions (plaque assay)” value in the data set on DENV2 16681s [7] was roughly 3 Log10-fold. Moreover, the “anti-SARS-CoV-2 activity (reduction)” value with SARS-CoV-2 was “less than 10 fold”. Further, the “impact on SARS-CoV-2 (betacoronavirus) replication” value in the data set on SARS-CoV-2 (50 μM, Huh7.5) is listed as “Only moderate impacts (if any)”. Also, the “decrease of viral replication (DENV-R2A)” value in data set [8] was found to be 714 fold. The “impact on WNV replication” value in the data set with WNV NY99 (Huh7.5) is “Only moderate impacts (if any)”.
On to `NC(=O)c1ccccc1NC(=O)c1ccc(-c2ccccc2)cc1` [N-(2-[aminocarbonyl]phenyl) (1,1′-biphenyl)-4-carboxamide], for which, in the data set with murine cancer model, the “efficacy in in vivo murine cancer model” value was “effective” and the “toxicity in in vivo murine cancer model” value was “without observable toxicity”.
As to `COc1cc2c(cc1O)CN(C)C[C@H]2c1ccc(O)cc1` [cherylline], the half-maximal cytotoxic concentration (CC50) with Huh7.5 cells [9] is greater than 250 µM. Also, the EC50 in data set [10] was 8.8 µM; in [11], 20.3 µM.
In the case of `Cc1cc(O)nc2ccc(O)cc12` [PS-4921, Cc1cc(O)nc2ccc(O)cc12], the “Cell viability (fold DMSO) Mean” value with Huh7.5 cells [3] is given as 1.00 fold DMSO. Further, the activity at 50 µM in data set [4] is 83%; in [8] (setting [13]) it was 92%.
Turning to `Clc1cccn2nnnc12` [PS-5645, Clc1cccn2nnnc12], in the data set with Huh7.5 cells [3], the “Cell viability (fold DMSO) Mean” value was determined as 0.92 fold DMSO. Also, the activity at 50 µM in data set [4] and in data set [8] (setting [13]) was 101% throughout.
For `Clc1ccc(N2CCNCC2)nc1` [AS-5607, Clc1ccc(nc1)N2CCNCC2], the “Cell viability (fold DMSO) Mean” value in the data set on Huh7.5 cells [3] amounted to 1.13 fold DMSO. Moreover, the activity at 50 µM in [4] stood at 81%; in data set [8] (setting [13]), 76%.
Turning to `O=C(O)c1ccc(N2CCCCC2)nn1` [PS-5724, OC(=O)c1ccc(nn1)N2CCCCC2], in the data set on Huh7.5 cells [3], the “Cell viability (fold DMSO) Mean” value was 1.01 fold DMSO. Moreover, the activity at 50 µM in [4] stood at 106%; in [8] (setting [13]), 107%.
For `N[C@@H]1c2ccccc2C[C@@H]1O` [PS-4272, N[C@H]1[C@@H](O)Cc2ccccc12] the same measures were 1.08 fold DMSO, 102% and 93%.
For `OCc1cc2cc(Br)ccc2[nH]1` [GA-0936, OCc1cc2cc(Br)ccc2[nH]1] the same measures were 0.83 fold DMSO, 63% and 13%.
For `Brc1cnc(N2CCCC2)nc1` [PS-6092, Brc1cnc(nc1)N2CCCC2], the “Cell viability (fold DMSO) Mean” value in the data set on Huh7.5 cells [3] is 1.11 fold DMSO. In addition, the values for the activity at 50 µM in data set [4] and in data set [8] (setting [13]) were 103% and 105%, respectively.
On to `Nc1ccc(Cl)cc1Br` [PS-3798, Nc1ccc(Cl)cc1Br], for which, in the data set with Huh7.5 cells [3], the “Cell viability (fold DMSO) Mean” value is given as 0.99 fold DMSO. The activity at 50 µM was 111% in data set [4] and 94% in [8] (setting [13]).
As to `O=C(Nc1ccccc1)c1cccnc1` [NPP3C, N-phenylpyridine-3-carboxamide], the “levels of viral protein NS3 (western blot)” value in data set [1] is reported as “remained unchanged”. In the data set on HCV, strain JFH-1, the “impact on HCV replication” value was “did inhibit”. The “cell viability / cytotoxicity at the used concentration” value in the data set on Huh7.5 cells [3] (50 μM) was “unaffected”. Also, the values for the EC50 in data set [4] and in [8] were 15.3 µM and 7.1 µM, respectively. The activity at 50 µM in [4] amounted to 27%; in [8] (read-out: DENV-R2A replication (Fold DMSO), Table S3, NPP3C analogues, 50 µM, Huh7.5, 2 days postinfection) it was 1.31%; in data set [8] (setting [13]) it was 2.38%; in [8] (read-out: DENV-R2A replication (fold DMSO), Table 1, NPP3C analogues, 50 μM, Huh7.5, 2 days postinfection) it was 1%. Moreover, the “reduction in ZIKV viral titers” value in the data set on ZIKV H/PF/2013 is roughly 15 fold. The “inhibitory activity when added after infection” value was “retain their full inhibitory activity” in the data set with DENV-R2A (added 4 h after infection) and “retained a strong inhibitory activity” in the data set on DENV-R2A (setting [12]). Also, the “intracellular levels of DENV vRNA and NS4B” value with DENV2 16681s [5] is “decrease”. In the data set on MHV-A59, the “impact on MHV replication” value is recorded as “did not impede”. In addition, in [6], the “formation and stability of ZIKV NS3/NS4B interaction” value is recorded as “do not inhibit”. For the same compound, in the data set with DENV2 16681s [7], the “abundance of released virions (plaque assay)” value is “reduced”. In the data set with SARS-CoV-2, the “anti-SARS-CoV-2 activity (reduction)” value is “less than 10 fold”. Further, in data set [8], the “decrease of viral replication (DENV-R2A)” value is given as 55 fold. The “decrease of WNV extracellular infectious titers” value with WNV NY99 (MOI 0.1, Huh7.5, 2 days postinfection) is 22 fold.
As to `O=C(c1ccccc1)C1(O)CCCCC1` [FS-3226, OC1(CCCCC1)C(=O)c2ccccc2], the “Cell viability (fold DMSO) Mean” value in the data set on Huh7.5 cells [3] turned out to be 1.07 fold DMSO. Moreover, the activity at 50 µM turned out to be 109% in data set [4] and 96% in data set [8] (setting [13]).
For the compound `Oc1ccc2ncccc2c1` [PS-3719, Oc1ccc2ncccc2c1], the “Cell viability (fold DMSO) Mean” value with Huh7.5 cells [3] is listed as 1.19 fold DMSO. The activity at 50 µM in [4] was found to be 107%; in data set [8] (setting [13]) it was 93%.
For the compound `CCN1C(=O)CCCc2ccccc21` [Compound 11N-585S, CCN1C(=O)CCCc2ccccc12], in the data set on Huh7.5 cells [3], the “Cell viability (fold DMSO) Mean” value was 0.93 fold DMSO. For the same compound, the activity at 50 µM in data set [4] was 97%; in data set [8] (setting [13]) it was 102%.
